Experiments:
[1] = UV absorption spectra of the compounds, avobenzone and their combinations; format: physicochemical; conditions: for UV absorption: 320 nm and 400 nm, each compound alone
Procedure: (§1) In both cases, the absorptivity of these two compounds were studied. In addition, photostability of these two compounds were also assessed by taking a second UV absorption spectra after exposing the compounds to UV. Photostability of sun screening compounds are of critical importance as a compound would be completely ineffective if they lose their UV absorptive qualities shortly after being exposed to solar radiation.
Avobenzone is an example for a known chemical UV absorber that can be combined.

[2] = Photostability: UV absorption spectra before and after UV exposure; format: physicochemical; conditions: before vs after UV exposure; 290 nm to 400 nm; FIGS. 2 and 4
Procedure: as §1
Turning to FIG. 2, this set of spectra show the effects of UV exposure on 3-hydroxy-2-methoxy-cyclo-2-enone, avobenzone, and combinations thereof over a wavelength range of 290 nm and 400 nm. A first spectrum 210 and a second spectrum 212 are for avobenzone before and after UV exposure. A third spectrum 220 and a fourth spectrum 222 are for 3-hydroxy-2-methoxy-cyclo-2-enone before and after UV exposure, respectively. A fifth spectrum 230 and a sixth spectrum 232 correspond to a combination of 3-hydroxy-2-methoxy-cyclo-2-enone and avobenzone at a ratio of 1:2 before and after UV exposure, respectively. Finally, a seventh spectrum 240 and an eighth spectrum 242 correspond to a combination of 3-hydroxy-2-methoxy-cyclo-2-enone and avobenzone at a ratio of 2:1 before and after UV exposure, respectively.
A first spectrum 410 and a second spectrum 412 are for avobenzone before and after UV exposure. […]

| UV absorption ([1]; FIG. 1) | absorbance at 320 nm relative to strongest absorbance ([1]; at 320 nm, FIG. 1) | wavelength of strongest (maximum) UV absorption ([1]; compound alone) | change of UV absorption after UV exposure (photostability) [2] | Compound |
| --- | --- | --- | --- | --- |
| relatively low | drops off by approximately half | around 262 nm | dropped overall | 3-Hydroxy-2-methoxy-cyclo-2-enone |
| relatively low |  |  | dropped overall | COc1ccc(C(=O)CC(=O)c2ccc(C(C)(C)C)cc2)cc1 [avobenzone, reference compound] |

Reference: patent US10064797B2, “Topical formulations for UV protection” (TOPGENIX, INC., priority 2014, dated 2018)
